Data: patent US7011834B1, “Immunomodulating dimers” (The Board of Trustees of Leland Stanford Junior University, priority 1987, dated 2006)

Experiments:
[1] = test system: CD8+CTL line specific for HLA-A2; assay: Cytotoxicity assay: inhibition of lysis by established CTL, 51Cr-labeled JY targets; type: cell-based, human; conditions: JY targets; for % Specific Lysis: cell ratio 1:1, CTL line AJY
Protocol: Cytotoxicity Assay. CTL assays were performed as described using ^51Cr-labeled EBV transformed B cells expressing the appropriate HLA allele as targets [[…] et al., J. Immunol. (1982) 129:2001]. In the present protocol, a CD8+CTL line specific for HLA-A2 was tested in the presence of various peptides for lysis of ^51Cr-labeled JY targets. Peptides were added to a final concentration of 100 μg/ml at the initiation of the 4 h assay. Each determination was the mean of triplicate wells. […] In these determinations, inhibition of cytolysis, as described above, employed the CTL cell line AJY, a long term CD8+CTL line specific for HLA-A2 and the target cell was the B-lymphoblastoid cell line JY (HLA-A2, B7). The cytotoxicity assay was performed as described by Clayberger et al., J. Exp. Med. (1984) 162:1709-1714; and Reiss et al., Proc Natl Acad Sci USA (1980) 77:5432-5436. The peptides were preincubated for 30 min with 1-3×10^3 CTLs before addition of 10^3 51Cr-labeled B-lymphoblastoid target cells. The results are reported for varying concentrations of the peptide with varying ratios of the two cell lines.

purified T cells = assay: Proliferation assay: purified T cells stimulated by immobilized anti-CD3, 3H-thymidine incorporation; type: cell-based, human
Protocol: Cells and Cell Culture. PBL were isolated from normal donors by centrifugation over Ficoll-Hypaque. In some cases, T cells were purified from this preparation using the method of Secrist et al. [J. Exp. Med. (1993) 178:2123]. Briefly, cells isolated over Ficoll-Hypaque were incubated for 1 hour in Petri dishes. Nonadherent cells were passed over a nylon wool column and the resulting population was >90% CD3+ by FACS analysis. CD8+CTL lines specific for HLA-A2, B7, B27, B48, or Cw4 were generated and maintained in long-term culture as previously described [Buxton et al., J. Exp. Med. (1992) 175:809; Wesley et al., Hum. Immunol. (1993) 36:149]. Jurkat E6-1 and the T cell receptor negative Jurkat, JRT3-T3.5, were obtained from the American Type Culture Collection (ATCC; Rockville, Md.). Other cell lines used included the EBV transformed B cell lines JY, MS, C1R, and 721.221; K562 and HEL, erythroleukemia cell lines; the T cell tumors Peer, Hut-78 and HSB; the Burkitt's lymphoma cell lines Daudi and SUP B17 [Wright et al., J. Exp. Med. (1989) 169:1557], and the NK-like cell line YT2C2. […]
Proliferation Assay. […] Plates were harvested on a PHD Cell Harvester 24 hours later and [^3H]-thymidine incorporation determined by scintillation counting.
Peptides were evaluated for effects on the proliferation of purified T cells stimulated by immobilized anti-CD3 antibody. […]

PBL from normal donors = assay: PBL proliferation with Conagglutinin A, 3H-thymidine incorporation; type: cell-based, human; conditions: approximate, purity not established
Protocol: To measure the effect of D-substitutions on proliferation, PBL from normal donors were cultured at 5×10^5 cells/round bottom microtiter well in RPMI-1640 supplemented with 10% fetal bovine serum and L-glutamine. Cultures were supplemented with Conagglutinin A. Cells were incubated at 37° C. for three days at which point ^3H-thymidine (1 μCi/well) was added. After 24 hours, wells were harvested and ^3H-thymidine incorporation determined by scintillation counter.

[2] = test system: Lew specific CTL precursors in splenocytes; assay: Limiting dilution assay for CTL precursors in splenocytes after in vivo peptide; set-up: species or system rat; conditions: for [CTL precursor frequency]^−1: PVG rats, single iv 2 mg, Lew stimulators
Protocol: The effect of peptides on CTL precursor frequencies in splenocytes was tested as follows. Limiting dilution analysis was carried out essentially as described (Moeller et al. 1993, supra; Skinner and Marbrook. J. Exp. Med. (1976) 143:1562). Briefly, spleens were removed from naive animals or from animals that had received an allograft a minimum of 60 days earlier and then teased into a single cell suspension. Responder cells were plated from 1000 to 40,000 cells per well (24 replicates per concentration) into round bottom microliter wells in RPMI 1640 supplemented with 10% fetal bovine serum (Hyclone, Logan, Utah), 2 mM L-glutamine, 5×10^−5M β-mercaptoethanol, 100 U/ml penicillin, 100 μg/ml streptomycin, 20% supernatant from Concanavalin A activated rat spleen cells, and 50 μM α-methyl mannoside. Then, 5×10^5 irradiated (2000 rads) stimulator cells were added to each well and plates were incubated in a humidified CO2 incubator. After 5 days, aliquots were removed and tested for lysis of ^51Cr-labeled Concanavalin A activated blasts. Aliquots of supernatant were counted in a gamma counter and CTL precursor frequency determined by linear regression (Skinner and Marbrook. 1976, supra). Wells were considered positive if specific release was >10%.
PVG (RT1^c) or ACI […] rats were treated with a single intravenous injection of saline or 2 mg of A2.75-84, B7.75-84, B2702.75-84, or RT1^a.75-84 peptide. Their spleens were removed on different days after peptide treatment, cultured under limiting dilution conditions for 5 days with irradiated (2000R) splenocytes from Lewis rats; i.e., Lew (RT1^1) stimulator cells, and assayed for lysis of ^51Cr-labeled Lew blasts. CTL precursor frequency was determined by linear regression analysis.

RENLRIALRY [B2702.75–84] was tested, and the “inhibition of lysis by established CTL” value ([1]; HLA-A2 specific CD8+CTL, peptides 100 μg/ml, 4 h assay) was “inhibited lysis”, the “% Specific Lysis” value ([1]; peptide 25 μg/ml) was 23.9% and the “% Specific Lysis” value ([1]; peptide 100 μg/ml) was 18.6%. For the same sequence, the “% Specific Lysis” value ([1]; peptide 200 μg/ml) was 16.4%, the “inhibition of proliferation of purified T cells stimulated by immobilized anti-CD3 antibody” value (purified T cells) was “do not” and the “CPM ± SD (3H-thymidine incorporation)” value (PBL from normal donors; peptide 50 μg/ml, Con A 1 mg/ml) was 5,806 ± 721 CPM. For the same sequence, the “CPM ± SD (3H-thymidine incorporation)” value (PBL from normal donors; peptide 50 μg/ml, Con A 3 mg/ml) was 32,618 ± 1582 CPM, the “CPM ± SD (3H-thymidine incorporation)” value (PBL from normal donors; peptide 200 μg/ml, Con A 1 mg/ml) was 2,322 ± 147 CPM and the “CPM ± SD (3H-thymidine incorporation)” value (PBL from normal donors; peptide 200 μg/ml, Con A 3 mg/ml) was 20,905 ± 2047 CPM. For the same sequence, the “[CTL precursor frequency]^−1” value ([2]; 0 days after peptide injection) was 54,631, the “[CTL precursor frequency]^−1” value ([2]; 1 day after peptide injection) was 54,631 and the “[CTL precursor frequency]^−1” value ([2]; 7 days after peptide injection) was 465,572. The “[CTL precursor frequency]^−1” value ([2]; 10 days after peptide injection) was 468,071 and the “precursor frequency of Lew specific cells in splenocytes” value ([2]; treated on the day of splenectomy or 24 hours earlier, compared with approximately 1 in 55,000) was “The same frequency”.
